According to patent publication US11078499B2, “Host cells and methods for producing toluene biochemically” (The Regents of the University of California, priority 2018, dated 2021):

System: PhdB
Assay: Assays testing whether PhdB could decarboxylate o-, m-, or p-hydroxyphenylacetate, equimolar with phenylacetic acid-2-13C
Format: biochemical, Acidobacteria strain Tolsyn
Conditions: for PhdB activity on substrate: relative to phenylacetate, equimolar 2.5 mM
Protocol: Analogous assays with o- and m-hydroxyphenylacetate similarly indicated very low (in this case, undetectable) PhdB activity for these hydroxyphenylacetate isomers, whereas labeled toluene is easily detected.
Assays for phenylacetate decarboxylase activity were performed under strictly anaerobic conditions within a glove box. Assays, which were performed in 4-mL glass vials sealed with 13-mm diameter PTFE Mininert screw-cap valves (Sigma-Aldrich), contained […] PhdA in assay buffer [50 mM TRIS (pH 7.5), 150 mM NaCl, 1 mM MgCl2, 5 mM (NH4)2SO4, 5 mM DTT)], to which 2 mM dithionite was added and incubated for ˜1 hour, followed by the addition of 2 mM SAM, 2.5 μM PhdB in assay buffer, and 2.5 mM phenylacetic acid-2-^13C in a final volume of 1 or 1.5 mL (depending on the specific experiment). Quantitative standards contained the same headspace/liquid ratios as assays and a dimensionless Henry's constant of 0.27^43 was used to calculate aqueous concentration. Negative controls were run concurrently and were identical except for the absence of SAM (FIG. 6). The vials were shaken on a tabletop orbital shaker at low speed. Gaseous headspace samples (100 μL) were taken within the glove box using a 500-μL gastight syringe (Sample-Lok series A-2; Sigma-Aldrich) and analyzed immediately by GC/MS, as described previously^8. Briefly, toluene was analyzed by static headspace, electron ionization (EI) GC/MS using a model 7890A GC (Agilent, Santa Clara, Calif.) with a DB-5 fused silica capillary column (30-m length, 0.25-mm inner diameter, 0.25-μm film thickness; Agilent) coupled to an HP 5975C series quadrupole mass spectrometer. As described elsewhere^8, the identity of [methyl-^13C]toluene was confirmed with the expected m/z 93/92 ratio of 0.6. Replicates involved separate assays rather than multiple analyses of a given assay sample. In assays testing whether PhdB could decarboxylate o-, m-, or p-hydroxyphenylacetate to o-, m-, or p-cresol, conditions were as described above except that equimolar amounts (2.5 mM) of o-, m-, or p-hydroxyphenylacetic acid (Sigma) and phenylacetic acid-2-^13C were added, and GC/MS analysis of o-, m-, or p-cresol in 1-μL liquid injections of concentrated hexane extracts were conducted as described previously^8. The identity of o-, m-, or p-cresol was assessed using retention time and the expected m/z 108/107 ratio of 1.16, 1.05, or 0.83, respectively, based on authentic standards.

Structure (SMILES)	PhdB activity on substrate	p-cresol level relative to that expected if PhdB activity were comparable to phenylacetate (equimolar phenylacetate and p-hydroxyphenylacetate (2.5 mM) with PhdA, PhdB and SAM)
O=C(O)Cc1cccc(O)c1 [m-hydroxyphenylacetate, m-hydroxyphenylacetic acid]	undetectable	
O=C(O)Cc1ccccc1O [o-hydroxyphenylacetate, o-hydroxyphenylacetic acid]	undetectable	
O=C(O)Cc1ccc(O)cc1 [p-hydroxyphenylacetate]	far lower activity	approximately 100 fold lower
